Laboratory results from patent publication US20120010253A1, “Fungicidal compositions comprising Fluopyram and Metrafenone” (BASF SE, priority 2009, published 2012).

What was measured:
[1] = system: Pyrenophora teres; experiment: Activity against Pyrenophora teres (net blotch on barley) in the microtiter plate test; assay type: cell-based; conditions: MTP, 405 nm, 7 days after inoculation
Experimental: The active substances were formulated separately as a stock solution in dimethyl sulfoxide (DMSO) at a concentration of 10 000 ppm. Use Example 2—Activity Against Pyrenophora teres (Net Blotch on Barley) in the Microtiter Plate Test The stock solutions were mixed according to the ratio, pipetted onto a micro titer plate (MTP) and diluted with water to the stated concentrations. A spore suspension of Pyrenophora teres in an aqueous biomalt solution was then added. The plates were placed in a water vapor-saturated chamber at a temperature of 18° C. Using an absorption photometer, the MTPs were measured at 405 nm 7 days after the inoculation. The measured parameters were compared to the growth of the active compound-free control variant (100%) and the fungus-free and active compound-free blank value to determine the relative growth in % of the pathogens in the respective active compounds. These percentages were converted into efficacies. The expected efficacies of active compound mixtures were determined using Colby's formula [R. S. Colby, “Calculating synergistic and antagonistic responses of herbicide combinations”, Weeds 15, 20-22 (1967)] and compared with the observed efficacies.

[2] = system: Botrytis cinerea; experiment: Activity against the grey mold Botrytis cinerea in the microtiter plate test; assay type: cell-based; conditions: MTP, 405 nm, 7 days after inoculation
Experimental: The active substances were formulated separately as a stock solution in dimethyl sulfoxide (DMSO) at a concentration of 10 000 ppm. Use Example 1—Activity Against the Grey Mold Botrytis cinerea in the Microtiter Plate Test The stock solutions were mixed according to the ratio, pipetted onto a micro titer plate (MTP) and diluted with water to the stated concentrations. A spore suspension of Botrci cinerea in an aqueous biomalt solution was then added. The plates were placed in a water vapor-saturated chamber at a temperature of 18° C. Using an absorption photometer, the MTPs were measured at 405 nm 7 days after the inoculation. The measured parameters were compared to the growth of the active compound-free control variant (100%) and the fungus-free and active compound-free blank value to determine the relative growth in % of the pathogens in the respective active compounds. These percentages were converted into efficacies. The expected efficacies of active compound mixtures were determined using Colby's formula [R. S. Colby, “Calculating synergistic and antagonistic responses of herbicide combinations”, Weeds 15, 20-22 (1967)] and compared with the observed efficacies.

Compound | Observed efficacy (%) ([1]; 0.063 ppm) | Observed efficacy (%) ([1]; 0.25 ppm) | Observed efficacy (%) ([2]; 0.25 ppm) | Observed efficacy (%) ([1]; 1 ppm) | Observed efficacy (%) ([2]; 16 ppm)
O=C(NCCc1ncc(C(F)(F)F)cc1Cl)c1ccccc1C(F)(F)F [Fluopyram] | 16 | 60 | 18 |  | 
COc1cc(C)c(C(=O)c2c(OC)ccc(Br)c2C)c(OC)c1OC [Metrafenon, Metrafenone] | 3 |  |  | 18 | 10
